Values of other authors, collected in patent US12031126B2, “Methods and compositions for simultaneous editing of both strands of a target double-stranded nucleotide sequence” (The Broad Institute, Inc., priority 2020, dated 2024).

Experiments:
[1] = target: FKBP12 (Homo sapiens, UniProt P62942); conditions: cited from earlier work
[2] = target: FKBP12 F36V (Homo sapiens, UniProt P62942, F37V); conditions: cited from earlier work
Sequence of FKBP12 F36V (P62942 whole entry F37V): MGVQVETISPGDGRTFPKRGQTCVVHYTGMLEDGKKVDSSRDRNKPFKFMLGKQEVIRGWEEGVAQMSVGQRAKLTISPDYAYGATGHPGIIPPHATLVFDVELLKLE

Sequence of FKBP12 (P62942 whole entry): as the sequence (P62942 whole entry F37V) above, with V37F counted along it

Structure (SMILES): CC[C@H](C(=O)N1CCCC[C@H]1C(=O)O[C@H](CCc1ccc(OC)c(OC)c1)c1cccc(OCC(=O)O)c1)c1cc(OC)c(OC)c(OC)c1 [AP1867]
- Kd [1]: 67 nM
- Kd [2]: 0.094 nM
